Data on 45 compounds can be found in the Deep4Chem optical property database.

This series in a line: solvent given as SMILES.

`CC(C)(C)OC(=O)NCC(=O)OCc1ccc2c3cccc4cccc(c5cccc1c52)c43`: the emission maximum (in CCO) worked out at 446 nm.
On to `Cc1cc(-c2ccccc2C)cc(C)[o+]1`, for which the emission maximum by setting is: (in CC#N) 518 nm; (in ClCCl) 469 nm.
Under “in C1CCOC1”, `F[B-]1(F)Oc2ccccc2-c2n(-c3ccc(C(F)(F)F)cc3)c(-c3ccccc3)c(-c3ccccc3)[n+]21` had an emission maximum of 390 nm.
Take `COc1cc(OC)c(C2=C3C(C)=CC(C)=[N+]3[B-](F)(F)n3c(C)cc(C)c32)c(OC)c1`: the emission maximum reads like this: (in C1CCOC1) 517 nm; (in CC#N) 513 nm; (in CC(=O)C(C)(C)C) 517 nm; (in CC(C)=O) 515 nm; (in CCCCCC) 520 nm; (in CCOC(C)=O) 511 nm. Moreover, the emission maximum (in CO) was 515 nm.
Regarding `N#Cc1nc2c3ccc(-c4ccc(N(c5ccccc5)c5ccccc5)cc4)cc3c3cc(-c4ccc(N(c5ccccc5)c5ccccc5)cc4)ccc3c2nc1C#N`, the emission maximum was 633.42 nm (in C1COCCO1); 503.54 nm (in CCCCCC); 588 nm (in Cc1ccccc1); 721.14 nm (in ClC(Cl)Cl); 628 nm (in O=P(c1ccccc1)(c1ccccc1)c1cccc(-c2cc(-n3c4ccccc4c4ccccc43)cc(-n3c4ccccc4c4ccccc43)c2)n1).
On to `CN(C)c1ccc2nc(/C=C/c3cc4c5c(c3)CCCN5CCC4)c(=O)oc2c1`, for which the emission maximum is 543 nm (in C1CCCCC1); 611 nm (in C1COCCO1); 709 nm (in CC#N); 679 nm (in CC(C)=O); 540 nm (in CCCCCCC); 705 nm (in CCO). For the same compound, the emission maximum (in CCOC(C)=O) was found to be 628 nm; the emission maximum (in CN(C)C=O) amounted to 704 nm; the emission maximum (in CS(C)=O) was determined as 715 nm; the emission maximum (in Cc1ccccc1) came to 596 nm; the emission maximum (in ClC(Cl)Cl) was determined as 671 nm; the emission maximum (in ClCCl) is reported as 678 nm.
The compound `Nc1ccc2c(c1)NC(=O)CC(=O)N2` returned an emission maximum (in CS(C)=O) of 385 nm.
Consider `CCCCCCCCCCCCSc1cc2c3c(ccc4c5c(SCCCCCCCCCCCC)cc6c7c(ccc(c1c34)c75)C(=O)N(C1CCCCC1)C6=O)C(=O)N(C1CCCCC1)C2=O`, for which, under “in ClC(Cl)Cl”, the emission maximum is 655 nm.
For `CCn1c2ccc(-c3cccs3)cc2c2cc(-c3cccs3)ccc21`, where the note is “in ClCCl”, the emission maximum amounted to 392 nm.
Consider `COc1cc(C(=O)c2c(C)c3ccc4cccc5c6cccc7ccc2c(c76)c3c45)cc(OC)c1OC`, for which, where the note is “in ClCCl”, the emission maximum came to 456 nm.
Consider `c1ccc(C(=C(c2ccccc2)c2ccc(-c3ccc(-c4nc5c(-c6ccc(-c7ccc(C(=C(c8ccccc8)c8ccccc8)c8ccccc8)cc7)cc6)sc(-c6ccc(-c7ccc(C(=C(c8ccccc8)c8ccccc8)c8ccccc8)cc7)cc6)c5nc4-c4ccc(-c5ccc(C(=C(c6ccccc6)c6ccccc6)c6ccccc6)cc5)cc4)cc3)cc2)c2ccccc2)cc1`, for which the emission maximum was determined as 637 nm (in Cc1ccccc1) and 647 nm (in ClCCl).
Consider `COc1c2ccccc2c(OC)c2c(C#Cc3ccccc3)c3cc4sccc4cc3c(C#Cc3ccccc3)c12`, for which, where the note is “in ClCCl”, the emission maximum is 672 nm.
Take `CC(C)c1cc(C(C)C)c(B2c3cc(-n4c5ccccc5c5ccccc54)ccc3N(c3ccccc3)c3ccc(-n4c5ccccc5c5ccccc54)cc32)c(C(C)C)c1`: the emission maximum reads like this: (in C1CCOC1) 442.52 nm; (in CCOC(C)=O) 442.52 nm; (in Cc1ccccc1) 442.52 nm; (in ClCCl) 442.52 nm; (in c1cc(-c2cccc(-n3c4ccccc4c4ccccc43)c2)cc(-n2c3ccccc3c3ccccc32)c1) 452 nm.
Take `c1ccc(/C(=C(\c2ccccc2)c2cc(-c3ccc(-c4ccccc4)cc3)ccc2-c2ccc(-c3ccccc3)cc2)c2cc(-c3ccc(-c4ccccc4)cc3)ccc2-c2ccc(-c3ccccc3)cc2)cc1`: for the setting “in C1CCOC1”, the emission maximum came to 496 nm.
The compound `[O-][n+]1c(/C=C/c2cccs2)nc(N2CCOCC2)c2c1CCCC2` displayed an emission maximum (in ClCCl) of 534 nm.
On to `c1ccc(-c2nc(-c3nc(-c4ccccc4)c(-c4ccccc4)o3)oc2-c2ccccc2)cc1`, for which the emission maximum (in C1COCCO1) worked out at 411 nm.
`COc1cc2c(cc1-c1ccc(C#N)cc1)Cc1c3c(c4c(c1-2)-c1cc(OC)c(-c2ccc(C#N)cc2)cc1C4)C(=O)N(CCC(C)C)C3=O`: the emission maximum (in C1CCOC1) amounted to 460 nm.
Take `COC1=[N+]2C(=C(c3ccccc3)c3cc(SC#N)c(OC)n3[B-]2(F)F)C=C1SC#N`: the emission maximum is on record as 553 nm (in CC#N); 560 nm (in CCCCCC); 556 nm (in CCOC(C)=O); 550 nm (in CO); 555 nm (in ClCCl).
`C1=Cc2ccccc2C(=Cc2ccc(-c3ccc(C=C4c5ccccc5-c5ccccc54)cc3)cc2)c2ccccc21` yielded an emission maximum (in C1CCOC1) of 450 nm.
The compound `c1ccc(-c2nc3cc4c(cc3n2-c2ccccc2)nc(-c2ccccc2)n4-c2ccccc2)cc1` had an emission maximum (in CC#N) of 397 nm.
Same read-out and setting: as for `Clc1ccc(-c2nc3ccccc3n2-c2ccccc2)cc1`, the figure is 367 nm.
As for `N#Cc1cc2ccccc2[nH]1`, the emission maximum came to 328 nm (in C1CCOC1); 329 nm (in C1COCCO1); 330 nm (in CC#N); 332 nm (in CC(C)O); 334 nm (in CCO); 335 nm (in CO). The emission maximum runs as follows: (in CS(C)=O) 335 nm; (in O) 350 nm; (in OCC(F)(F)F) 339 nm.
For the setting “in O”, `CC[n+]1c(-c2ccccc2)c2cc(NC(=O)N[C@H]3C[C@@H]([NH3+])[C@H](O)[C@@H](O)[C@@H]3O)ccc2c2ccc(NC(=O)N[C@@H]3C[C@H]([NH3+])[C@@H](O)[C@@H](O)[C@H]3O)cc21` came in with an emission maximum of 522 nm.
In the case of `COc1ccccc1C1=C2C=CC(=[N+](C)C)C=C2[Si](C)(C)c2cc(N(C)C)ccc21`, the emission maximum (in O) came to 663 nm.
In the case of `Cc1cc2c3ccccc3oc2c2[nH]c3ccccc3c12`, where the note is “in ClCCl”, the emission maximum is on record as 353 nm.
As to `C/C(=C\c1ccc(C)cc1)c1nc2ccccc2o1`, the emission maximum was 370 nm (in C1CCCCC1) and 380 nm (in CO).
Consider `CCCCCCCCCCCCOc1ccc(C#Cc2ccc(C#Cc3ccc(OCCCCCCCCCCCC)c(OCCCCCCCCCCCC)c3)c3nc4c5ccccc5c5ccccc5c4nc23)cc1OCCCCCCCCCCCC`, for which the emission maximum is recorded as 558 nm (in C1CCOC1), 541 nm (in Cc1ccccc1) and 566 nm (in ClCCl).
For the compound `CC/[NH+]=c1\cc2oc3cc(NCCC(=O)NC(C)C(=O)OC)c4ccccc4c3nc-2cc1C` (stereo unspecified), the emission maximum (in CCO) is listed as 644 nm.
On to `N#CC(C#N)=Cc1ccc2c(c1)[nH]c1c3ccccc3sc21`, for which the emission maximum by setting is: (in C1CCOC1) 547 nm; (in CN(C)C=O) 581 nm; (in Cc1ccccc1) 518 nm; (in ClCCl) 544 nm.
`CC1(C)CCc2c(c3ccccc3c3nc4c(nc23)c2c(c3ccccc34)OC(C)(C)CC2)O1`: the emission maximum runs as follows: (in C1CCCCC1) 434.97 nm; (in C1COCCO1) 443.26 nm; (in CC#N) 449.03 nm; (in CC(C)O) 448.03 nm; (in CCCCCC) 434.22 nm; (in ClC(Cl)Cl) 446.43 nm. For the same compound, the emission maximum (in c1ccccc1) is 441.7 nm.
`c1ccc(N(c2ccccc2)c2ccccc2)cc1` showed an emission maximum (in CCO) of 353 nm.
With `O=c1cc2c(S(=O)(=O)O)c(O)c3cccc4ccc(o1)c2c43`, the emission maximum (in CC1CCCO1) is on record as 472 nm.
`c1ccc(-c2cnc3nn4ccccc4c3c2)cc1` returned an emission maximum (in C1CCOC1) of 415 nm.
`CCCCCCCCCCCCCCCCCCOC(=O)/C=C/C1=CC2=C(c3c(C)cc(C)cc3C)c3cc(/C=C/C(=O)OCCCCCCCCCCCCCCCCCC)cn3[B-](F)(F)[N+]2=C1`: where the note is “in ClCCl”, the emission maximum turned out to be 606 nm.
Regarding `COc1ccccc1C1=NC2c3cccc4cccc(c34)C2N1c1ccccc1` (stereo unspecified), the emission maximum (in Cc1ccccc1) came out at 379 nm.
With `N#CC(C#N)=Cc1ccc(-c2ccc(-c3nc4ccccc4s3)c(O)c2)s1`, the emission maximum by setting is: (in CCO) 499 nm; (in ClCCl) 503 nm; (in O) 609 nm.
`[O-][n+]1c(-c2ccc(Br)cc2)cc(N2CCOCC2)nc1/C=C/c1ccccc1` showed an emission maximum (in ClCCl) of 548 nm.
With `COc1ccc(N(c2ccccc2)c2cc3ccc4cc(N(c5ccccc5)c5ccc(OC)cc5)cc5ccc(c2)c3c45)cc1`, the emission maximum (in Cc1ccccc1) is listed as 482 nm.
For the compound `CC(C)(C)c1ccc(N2c3ccc(C(C)(C)C)cc3B3c4cc(C(C)(C)C)ccc4N(c4ccc(C(C)(C)C)cc4)c4cc(-n5c6ccc(C(C)(C)C)cc6c6cc(C(C)(C)C)ccc65)cc2c43)cc1`, the emission maximum (in Cc1ccccc1) is reported as 470 nm.
On to `CCCCCCN1C(=O)c2cccc3c(-c4scc5c4OCCO5)ccc(c23)C1=O`, for which, where the note is “in ClC(Cl)Cl”, the emission maximum was 484 nm.
Regarding `c1ccc2c(c1)-c1ccccc1C21c2ccccc2-c2cnccc21`, the emission maximum (in CC1CCCO1) is recorded as 318 nm.
Where the note is “in CO”, `CC1(C)C(/C=C/C2=C(Cl)C(=C/C=C3/N(Cc4ccc([N+](=O)[O-])cc4)c4ccccc4C3(C)C)/CCC2)=[N+](Cc2ccc([N+](=O)[O-])cc2)c2ccccc21` had an emission maximum of 807 nm.
In turn, `c1ccc2c(c1)-c1ccccc1[Si]21c2ccccc2-c2cc3c(cc21)-c1ccccc1[Si]31c2ccccc2-c2ccccc21` gave an emission maximum (in ClCCl) of 408 nm.
Turning to `c1ccc2c(c1)CCc1ccccc1N2`, the emission maximum runs as follows: (in CC#N) 354 nm; (in CCCCCC) 329 nm; (in CO) 359 nm.
Regarding `CN(C)c1ccc(/C=C/c2nc(/C=C/c3ccc(N(c4ccccc4)c4ccccc4)cc3)cc(/C=C/c3ccc(N(c4ccccc4)c4ccccc4)cc3)n2)cc1`, the emission maximum was determined as 512 nm (in C1CCOC1); 574 nm (in CC#N); 552 nm (in CC(C)=O); 460 nm (in CCCCCCC); 577 nm (in CS(C)=O); 495 nm (in Cc1ccccc1). Where the note is “in ClCCl”, this compound gave an emission maximum of 577 nm.
